From PubChem BioAssay (NCI)
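How tested: cells in 96-well plates exposed to compound for 48 hours at five concentrations. TGI: total growth inhibition.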

Experiments:
Assay in all cases: inhibition of tumour cell growth, NCI panel, 48 h
DU-145 prostate = system: DU-145 prostate
M14 melanoma = system: M14 melanoma
MDA-MB-231 breast = system: MDA-MB-231 breast
NCI/ADR-RES ovarian = system: NCI/ADR-RES ovarian
OVCAR-4 ovarian = system: OVCAR-4 ovarian
SF-268 CNS = system: SF-268 CNS
SF-295 CNS = system: SF-295 CNS
SF-539 CNS = system: SF-539 CNS
SNB-75 CNS = system: SNB-75 CNS
TK-10 renal = system: TK-10 renal

Structure (SMILES) | TGI (DU-145 prostate) [µM] | TGI (M14 melanoma) [µM] | TGI (MDA-MB-231 breast) [µM] | TGI (NCI/ADR-RES ovarian) [µM] | TGI (OVCAR-4 ovarian) [µM] | TGI (SF-268 CNS) [µM] | TGI (SF-295 CNS) [µM] | TGI (SF-539 CNS) [µM] | TGI (SNB-75 CNS) [µM] | TGI (TK-10 renal) [µM]
COCN1CCN=c2c1c1c3c(c4ccccc4n23)CCC1 | > 100 | > 100 | > 100 | > 100 | > 100 | > 100 | > 100 | > 100 | > 100 | > 100
COC(=O)c1ccc(CCc2cc(O)ccc2O)cc1 | > 100 | 27.8 | 29.9 | > 90.1 | 24.4 | > 36.6 | > 70.5 | 19.6 | 21.2 | 45.8
C[N+](C)([O-])CCCNc1c2ccccc2nc2cccc([N+](=O)[O-])c12 | 1.49 | 0.772 | 1.48 | 75.6 | 3.16 | 8.14 | 15 | 3.88 | 1.4 | 8.19
Cc1cc(NS(=O)(=O)c2ccc(NC(=O)c3cccc4c(NNc5ccc(S(=O)(=O)N=C(N)N)cc5)c5ccccc5nc34)cc2)no1 | > 100 | > 100 | > 100 | > 100 | > 100 | > 100 | > 100 | > 100 | 88.3 | > 100
N/N=C1/C(=N/O)CCc2nonc21 | > 100 | > 100 | > 100 | > 100 | > 100 | > 100 | > 100 | > 100 | > 100 | > 100
COc1ccc(/C=C2\CC3C4CC=C5C[C@@H](O)CC[C@]5(C)C4CC[C@]3(C)\C2=N\O)cc1OC (some centres undefined) | > 100 | > 100 | > 100 | > 100 | > 100 | > 100 | 80.9 | > 100 | > 100 | > 100
O=C1CSC2=NCC3(NN12)c1ccccc1-c1ccccc13 | > 10 | > 10 | > 10 | > 10 | > 10 | > 10 | > 10 | > 10 | > 10 | > 10
S=c1nc2[nH]c3ccc(Br)cc3c2n[nH]1 | > 100 | > 100 | > 100 | > 100 | > 100 | > 100 |  | > 100 | 94.9 | > 100
O=C1OC2(C(F)(F)F)Oc3ccccc3CN2C12CCCCC2 (centres undefined) | > 100 | 66 | 59.5 | > 100 | > 100 | > 100 | 86.8 | > 100 | 59.1 | > 100
CCOC(=O)/C(C#N)=C/c1ccc(CO)o1 | > 100 | > 100 | > 100 | > 100 | > 100 | > 100 | > 100 | > 100 | > 100 | > 100
CC(NC(=O)OCc1ccccc1)NC(=O)C(CC(=O)OC(C)(C)C)NC(=O)OC(C)(C)C (centres undefined) | > 100 | > 100 | > 100 | > 100 | > 100 | > 100 | > 100 | > 100 | > 100 | > 100
CC1CC[C@@]2(OC1)O[C@H]1C[C@H]3[C@@H]4CC[C@H]5C[C@@H](OC6OC(CO)C(OC7OC(CO)C(OC8OC(CO)C(O)C(OC9OC(C)C(OC%10OC(C)C(O)C(O)C%10O)C(O)C9O)C8OC8OCC(O)C(O)C8O)C(O)C7O)C(O)C6O)CC[C@]5(C)[C@H]4CC(=O)[C@]3(C)[C@H]1[C@@H]2C (some centres undefined) | 40.4 | 41.7 | 30.1 | 43.2 | 32.7 | 56.9 | 39.3 | 28.5 | 36.5 | 31.5
C=CC(C)(C)N[C@@H](C(=O)N1CCC[C@H]1c1nc(-c2nc(C(=O)OCC=C(C)C)c(C)o2)c(C)o1)C(C)C | 34 | 83.4 | 51.3 | 59 | 71.4 | 46.9 | 42.8 | 38.3 | > 100 | 63.2
COc1ccc(-c2nc(-c3cc4ccccc4oc3=O)cs2)cc1 | > 100 | > 100 | 53.8 | > 100 | > 100 | > 100 | > 100 | > 100 | > 100 | > 100
CCc1nn(S(=O)(=O)c2ccc(C)cc2)c2c1CS(=O)(=O)CC2 | > 100 | > 100 | > 100 | > 100 | > 100 | > 100 | > 100 | > 100 | > 100 | > 100
CN1C/C(=C\c2ccc(Cl)cc2)C(=O)/C(=C/c2ccc(Cl)cc2)C1 | > 100 | 5.48 | 8.08 | > 22.5 | > 65.9 | > 100 | 2.07 | 1.8 | > 100 | > 100
